Test systems include MDA-N; DMS 273 small cell lung; DLD-1 colon; XF 498 CNS; SNB-78 CNS; KM20L2 colon; HOP-18 NSCLC; M19-MEL melanoma; RXF-631 renal.
Common to all, as to assay: growth of human tumour cells (NCI), 48 h

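How tested: cells in 96-well plates exposed to compound for 48 hours at five concentrations. Abbreviation: GI50, concentration required for 50% inhibition of growth. TGI: concentration producing complete growth inhibition.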

Consider `CC(=N\O)/C(C)=N/O.CC(=N\O)/C(C)=N/O.CC(=N\O)/C(C)=N/O.CC(=N\O)/C(C)=N/O.[Cu].[Cu]`, for which, in the assay on MDA-N, the GI50 was 20.5 µM and the TGI came out at 43.5 µM.
As for `CCN(CC)CC(=O)/C=C/c1ccc(C)cc1`, the TGI with DMS 273 small cell lung was 55 µM; in the assay on DLD-1 colon, 59.6 µM; in the assay with XF 498 CNS, 92.4 µM; with SNB-78 CNS it was more than 100 µM; in the assay on KM20L2 colon, 49.4 µM; in the assay on HOP-18 NSCLC, 59.6 µM. The same molecule came in with a TGI with M19-MEL melanoma of 32.7 µM.
On to `NC1CCCCC1N.O=C([O-])P(=O)([O-])[O-].[Na+].[Pt+4]` (stereo not drawn), for which the GI50 with DLD-1 colon is more than 100 µM; in the assay with SNB-78 CNS, more than 100 µM; in the assay on KM20L2 colon, more than 100 µM; in the assay on HOP-18 NSCLC it was more than 100 µM; in the assay on M19-MEL melanoma, 85.1 µM. Further, the TGI in the assay on DLD-1 colon, in the assay with SNB-78 CNS, in the assay on KM20L2 colon, in the assay on HOP-18 NSCLC and in the assay on M19-MEL melanoma was more than 100 µM throughout.
As for `O=c1[nH]c(-c2ccccc2)nc2ccc(Cl)cc12`, the TGI in the assay with DMS 273 small cell lung, with SNB-78 CNS, in the assay with KM20L2 colon and with M19-MEL melanoma was more than 100 µM throughout.
`O=S(=O)([O-])[O-].[Cl-].[NH2-].[NH2-].[NH2-].[NH2-].[Ru+3].c1ccc(-c2cccnc2)cc1`: the GI50 with DMS 273 small cell lung, in the assay on DLD-1 colon, in the assay with SNB-78 CNS and with KM20L2 colon was more than 100 µM throughout. Moreover, the TGI in the assay on DMS 273 small cell lung, with DLD-1 colon, with SNB-78 CNS and in the assay with KM20L2 colon was more than 100 µM each time.
In the case of `Cc1cc2c(cc1C)[n+](=O)c(C(=O)/C=C/c1ccc(Cl)cc1)c(C)n2[O-]`, the TGI in the assay on DMS 273 small cell lung was more than 100 µM; with DLD-1 colon it was 70.9 µM; with XF 498 CNS, 68.6 µM; in the assay on SNB-78 CNS, more than 100 µM; in the assay on KM20L2 colon, more than 100 µM; in the assay on HOP-18 NSCLC, more than 100 µM. For the same molecule, the TGI with M19-MEL melanoma is more than 100 µM.
For the molecule `COc1cc(N=Nc2ccccc2)cc(/C=N\[N-]C(N)=S)c1[O-].COc1cc(N=Nc2ccccc2)cc(/C=N\[N-]C(N)=S)c1[O-].[Fe+4]`, the GI50 was 18.5 µM with DLD-1 colon, more than 100 µM in the assay with SNB-78 CNS and 16.8 µM with M19-MEL melanoma. In addition, the TGI is more than 100 µM with DLD-1 colon, more than 100 µM in the assay with SNB-78 CNS and 75.9 µM with M19-MEL melanoma.
Regarding `O=C(O)CNS(=O)(=O)c1ccc(NC(=O)c2ccc(F)cc2)cc1`, the TGI in the assay with DMS 273 small cell lung, in the assay with RXF-631 renal, in the assay on DLD-1 colon, in the assay with XF 498 CNS, with KM20L2 colon and in the assay with HOP-18 NSCLC was more than 100 µM each time. Further, the TGI with M19-MEL melanoma was more than 100 µM.
As for `O=C1CCC2CCc3cccc4oc1c2c34` (stereo not drawn), the TGI in the assay with DMS 273 small cell lung, in the assay on DLD-1 colon, in the assay with XF 498 CNS, with SNB-78 CNS, with KM20L2 colon and in the assay on HOP-18 NSCLC was more than 100 µM in each case. Besides, the TGI in the assay on M19-MEL melanoma was more than 100 µM.
For `CC1=C(C)CC2(SC1)C(=O)c1ccccc1C2=O`, the TGI in the assay on DMS 273 small cell lung, in the assay with RXF-631 renal, in the assay with DLD-1 colon, with SNB-78 CNS, with KM20L2 colon and in the assay with HOP-18 NSCLC was more than 100 µM throughout. In the assay with M19-MEL melanoma, the TGI is more than 100 µM.
`C=C(C)C(=O)OC1CC2(C)OC2CC(OC(C)=O)/C(C)=C/C2OC(=O)C(=C)C21` (stereo not drawn): the TGI in the assay with MDA-N is 8.59 µM.
Consider `CN(C)c1ccc(/C=C/C(=O)C(C)(C)C)cc1Br`, for which the TGI in the assay with DLD-1 colon is 43.9 µM; in the assay with XF 498 CNS, 30.3 µM; with SNB-78 CNS it was more than 100 µM; in the assay on KM20L2 colon, 79.5 µM; with HOP-18 NSCLC, more than 100 µM; with M19-MEL melanoma it was 50.9 µM.
As to `COc1ccc(S(=O)(=O)N/N=C/CN2C(=O)c3ccccc3C2=O)cc1OC`, the TGI with DMS 273 small cell lung, with RXF-631 renal, in the assay with DLD-1 colon, with XF 498 CNS, in the assay on KM20L2 colon and with M19-MEL melanoma was more than 100 µM in each case.
With `Cn1ccnc1C(c1nccn1C)C(C)(C)[N+](=O)[O-]`, the TGI with DMS 273 small cell lung, in the assay on RXF-631 renal, in the assay on DLD-1 colon, in the assay on XF 498 CNS, in the assay on SNB-78 CNS and with M19-MEL melanoma was more than 100 µM throughout.
Regarding `C=CCC12CCC(=O)C=C1CCC1(C2)OCCO1` (stereo not drawn), the TGI in the assay with DMS 273 small cell lung, in the assay on RXF-631 renal, in the assay on DLD-1 colon, with SNB-78 CNS, in the assay on KM20L2 colon and with HOP-18 NSCLC was more than 100 µM each time. The molecule further showed a TGI with M19-MEL melanoma of more than 100 µM.
For `CCOCC(=O)N[C@H]1CCc2cc(OC)c(OC)c(OC)c2-c2ccc(SC)c(=O)cc21`, the TGI with DMS 273 small cell lung is more than 100 µM; in the assay with RXF-631 renal, more than 46.4 µM; in the assay with DLD-1 colon it was more than 100 µM; in the assay on XF 498 CNS, 4.49 µM; in the assay on SNB-78 CNS, more than 100 µM; in the assay on KM20L2 colon, less than 0.01 µM. Also, the TGI with HOP-18 NSCLC is more than 100 µM; in the assay with MDA-N, less than 0.01 µM; with M19-MEL melanoma it was more than 100 µM.
Turning to `COc1ccccc1/C=C1\CCC(CNc2ccc(Cl)cc2)C1=O` (stereo not drawn), the TGI in the assay with DMS 273 small cell lung stood at 20.2 µM; in the assay with DLD-1 colon it was 17.5 µM; in the assay with XF 498 CNS, 42.7 µM; in the assay with SNB-78 CNS it was 54.5 µM; in the assay with KM20L2 colon, 4.87 µM; with HOP-18 NSCLC, 30.2 µM. Besides, the TGI in the assay on M19-MEL melanoma was found to be 33.1 µM.
For the molecule `N#CCCN(CCC#N)c1ccc(/C=C2\N=C(COc3ccc(Cl)cc3Cl)OC2=O)cc1`, the TGI in the assay on DMS 273 small cell lung, in the assay with RXF-631 renal, with DLD-1 colon, with XF 498 CNS, in the assay on SNB-78 CNS and in the assay with KM20L2 colon was more than 100 µM throughout. This molecule also showed a TGI with M19-MEL melanoma of more than 100 µM.
With `CS(=O)(=O)N(CCC#N)c1ccc(/C=N/NC(=O)CC(=O)Nc2cccc(Cl)c2)cc1`, the TGI with DMS 273 small cell lung, in the assay on DLD-1 colon, with SNB-78 CNS, with KM20L2 colon, with HOP-18 NSCLC and in the assay with M19-MEL melanoma was more than 100 µM each time.
Regarding `CNS(=O)(=O)NN(C)S(=O)(=O)c1ccc(Cl)cc1`, the TGI with DMS 273 small cell lung, in the assay with RXF-631 renal, in the assay with DLD-1 colon, with XF 498 CNS, in the assay on KM20L2 colon and in the assay with M19-MEL melanoma was more than 100 µM each time.
Take `CCON=C1C(C)(C)C(C)(C)C(C)(C)C1(C)C`: in the assay on MDA-N, the TGI is more than 100 µM.
Take `CS(=O)(=O)OCCN1CCN(C(=O)c2cccc3c(Nc4ccc(S(N)(=O)=O)cc4)c4ccccc4nc23)CC1`: the TGI in the assay with DMS 273 small cell lung is more than 100 µM; with RXF-631 renal, more than 100 µM; with DLD-1 colon, more than 65.3 µM; in the assay on XF 498 CNS it was more than 100 µM; in the assay on SNB-78 CNS, more than 100 µM; with KM20L2 colon it was more than 100 µM. Also, the TGI with HOP-18 NSCLC and in the assay on M19-MEL melanoma was more than 100 µM each time.
As to `CCN(CC)c1ccc(N=C2C=CC(=O)c3ncccc32)c(C)c1`, the TGI in the assay with DMS 273 small cell lung turned out to be 20.6 µM; in the assay with RXF-631 renal it was 28.6 µM; with DLD-1 colon, 12 µM; in the assay on XF 498 CNS, 5.19 µM; with SNB-78 CNS, 31.2 µM; with KM20L2 colon, 26.5 µM. For the same molecule, the TGI came out at 22.8 µM in the assay with HOP-18 NSCLC and 22.6 µM in the assay with M19-MEL melanoma.
For `Oc1ccc2occ3c2c1CCC3`, the TGI in the assay on DMS 273 small cell lung, in the assay with RXF-631 renal, in the assay on DLD-1 colon, in the assay with XF 498 CNS, in the assay with SNB-78 CNS and in the assay with KM20L2 colon was more than 100 µM throughout. For the same molecule, the TGI in the assay with HOP-18 NSCLC and in the assay with M19-MEL melanoma was more than 100 µM throughout.
For the molecule `Cn1cc(NC(=O)c2cc(NC(=O)Nc3cc(C(=O)Nc4cc(C(=O)NCCC(=N)N)n(C)c4)n(C)c3)cn2C)cc1C(=O)NCCC(=N)N`, the TGI with DMS 273 small cell lung is 29.6 µM; in the assay on RXF-631 renal, 56.9 µM; in the assay with DLD-1 colon, more than 100 µM; in the assay on XF 498 CNS it was 45.8 µM; in the assay with SNB-78 CNS, 82 µM; in the assay on KM20L2 colon, more than 100 µM. Moreover, the figures for the TGI in the assay with HOP-18 NSCLC and in the assay with M19-MEL melanoma were more than 100 µM and 83.1 µM, respectively.
`CCNc1c(C(=O)N(CC)CC)c(=O)[nH]c2ncccc12`: the TGI in the assay with DMS 273 small cell lung, in the assay on DLD-1 colon, in the assay on SNB-78 CNS, with KM20L2 colon and with M19-MEL melanoma was more than 100 µM in each case.
Consider `CC1CCC2(NC1)OC1CC3[C@@H]4CC=C5C=CCC[C@]5(C)C4CC[C@]3(C)C1C2C` (stereo partly drawn), for which the TGI in the assay with DLD-1 colon was 58.2 µM; in the assay with XF 498 CNS, 33 µM; with SNB-78 CNS, more than 100 µM; in the assay on KM20L2 colon, 33.8 µM; with HOP-18 NSCLC, more than 100 µM; with M19-MEL melanoma it was more than 100 µM.
On to `CC(C)COC(=O)N1N=NC2C3OC(CC3=O)C21` (stereo not drawn), for which the TGI in the assay on DMS 273 small cell lung, in the assay with DLD-1 colon, in the assay with XF 498 CNS, in the assay on KM20L2 colon, in the assay with HOP-18 NSCLC and in the assay on M19-MEL melanoma was more than 100 µM throughout.
`CC(=O)O[C@H]1CC[C@@]2(C)C(CC[C@]3(C)C2CC[C@]2(C)Oc4c(C)cc(O)cc4C[C@@H]23)C1(C)C` (stereo partly drawn): the TGI turned out to be 12.7 µM in the assay with DMS 273 small cell lung; 19.4 µM in the assay with RXF-631 renal; 27.1 µM in the assay on DLD-1 colon; 21.8 µM with SNB-78 CNS; 19.2 µM in the assay on KM20L2 colon; 26.4 µM in the assay on HOP-18 NSCLC. The TGI in the assay on M19-MEL melanoma amounted to 25.8 µM.

These data come from PubChem BioAssay (NCI).
